# A melting point compilation (Tetko et al.; mined from patent text by program, amines drawn as free bases though some values may be those of a salt)
row,Structure (SMILES),melting point
1,Cc1ccc(N2CCNCC2)c2c1CC[C@@H](NC(=O)c1ccc(N3CCOCC3)cc1)C2,207 to 210 °C
2,Cn1ncc2c(c1=O)S(=O)CCNC2Cc1ccccc1 (stereo not drawn),162 to 163 °C
3,CN1CCC(OC2c3ccccc3CCn3c2nc(-c2ccccc2)c3C(=O)O)CC1 (stereo not drawn),185 °C
4,NC(=O)c1nc(-c2cccc(C3=Nc4ccc(-n5cccc5)cc4NC(=O)C3)c2)cs1,267 to 269 °C
5,O=C(c1ccccc1)c1nc2cnc3ccc(F)cc3c2[nH]1,255 to 256 °C
6,CCCCn1c(=O)c(NC(=O)Nc2c(C(C)C)cc(N)cc2C(C)C)c(-c2cccc(OCCCO)c2)c2cccnc21,153 to 155 °C
7,Cc1cc2c(cc1C)n(C1CCNCC1)c(=O)n2C,171 to 172 °C
8,O=C1Nc2ccc(I)cc2C1=NNC(=O)C1CCN(Cc2cccnc2)CC1,125 °C
9,COC(=O)C(C(C)C)N(C)S(=O)(=O)c1ccc(-c2ccc(NC(=O)c3oc4cccc(C(O)CO)c4c3C)cc2)cc1 (stereo not drawn),182 to 185 °C
10,COc1ccc2c(c1)c(-c1[nH]c3ncccc3c1C)cn2C,237 °C
11,Cc1nn(-c2cc(Oc3ccc(N)cc3)c(Cl)cc2F)c(=O)n1C(F)F,133 to 135 °C
12,CC(=O)c1ccc2c(c1)CCc1ccc(C(=O)O)cc1S2(=O)=O,219 to 221 °C
13,CC(O)c1c(-c2ccc(O)cc2)oc2ccc(O)cc12 (stereo not drawn),177 to 182 °C
14,CNc1ccc(C=Cc2ccc(N)cc2)cc1,144 to 145 °C
15,CC(=O)Nc1c(C(=O)c2cccc(C#N)c2)[nH]c2cc(Cl)ccc12,185 to 187 °C
16,COc1ccc2c(c1)C(CC(=O)O)=C(C)C2=Cc1ccc(S(N)(=O)=O)cc1,224 to 225 °C
17,CCOC(=O)C1=C(C)NC(=O)N(C(=O)OCC)C1c1ccccc1[N+](=O)[O-] (stereo not drawn),150 to 152 °C
18,Nc1c(O)cc2c(c1[N+](=O)[O-])CCC2,196 to 198 °C
19,CCOc1nc(N)nc2sc(-c3ccc(F)cc3)cc12,142 °C
20,CCCCc1nn(-c2ccc(C(F)(F)F)cn2)cc1CCC(=O)OCC,63 to 64 °C
21,ClCOc1ccc(-c2ccccc2)cc1,67 to 70 °C
22,O=[N+]([O-])c1cccc2c1OCCO2,55 to 59 °C
23,CC(=O)NC1(c2ccc(CN3CCN(c4ccc(F)cc4)CC3)cc2)CC1,124 to 126 °C
24,Cc1cc2c(-c3ccccc3C)c(C(=O)O)c(=O)n(C)c2cc1Cl,204 to 205 °C
25,CC(C)(C)OC(=O)n1c(C#N)ccc1-c1ccc2c(c1)C(C)(C)OC(=O)N2,165 to 167 °C
26,COc1ccc(/C=C/C(=O)C2C(=O)CC(c3ccc(OC)cc3)C([N+](=O)[O-])C2c2ccc(OC)cc2)cc1 (stereo not drawn),200 to 202 °C
27,COc1cc2c(cc1OC)C(c1c(Cl)cccc1Cl)NC(=O)C2 (stereo not drawn),228 to 229 °C
28,Oc1nc(Nc2ccc(O)c(Cl)c2)cc(-c2ccccc2)n1,280 to 282 °C

# Now from value to compound:
row,melting point,Structure (SMILES)
1,162 to 163 °C,CCC(Cn1nccn1)n1nnc2cc3c(=O)n(C(C)Cn4ncnn4)nnc3cc2c1=O (stereo not drawn)
2,144 to 145 °C,COc1cc(C=C(C)C(=O)O)ccc1O
3,70 to 72 °C,c1ccc(CN2CC3CC2CN3C2=Nc3ccccc3Oc3ccccc32)cc1 (stereo not drawn)
4,240 to 243 °C,CC(C)NCC1CCN(c2nc3c(cc2F)c(=O)c(C(=O)O)cn3C2CC2)C1 (stereo not drawn)
5,139 to 140 °C,CCOC(=O)c1c(CN2CCCC2)nc2cc(OC)c(OC)cc2c1-c1ccc(OC)c(OC)c1
6,62 to 63 °C,COc1ccc(OC)c2c1ccn2Cc1ccc(Cl)cc1
7,76 to 80 °C,CC(=O)Cc1ccc(OCc2ccc(Cl)cc2)cc1
8,91.5 to 94 °C,CCOC(=O)C(C=O)Cc1ccc(OC)nc1 (stereo not drawn)
9,55 to 58 °C,COc1ccc(Cc2ccc(CO)nc2)cc1
10,116 to 118 °C,COc1ccc2c(c1)CC(N(C)CCCNC(=O)Cc1cc(OC)c(OC)cc1[N+](=O)[O-])CC2 (stereo not drawn)
11,56 to 58 °C,Cc1cc(Cl)cc2c1OCCCC2=O
12,183 to 184 °C,COc1ccc(C=Nc2ccc(SC)cc2)cc1
13,201 to 206 °C,N#Cc1cc([N+](=O)[O-])[nH]c1-c1ccc(Cl)cc1
14,90 to 93 °C,O=C(Nc1ccccc1)c1ccc([N+](=O)[O-])cc1
15,> 210 °C,N#CC1=CC(Br)=NC1(N)C#N (stereo not drawn)
